The results in this text go back to ChEMBL document CHEMBL4000220, “Optimization of spirocyclic proline tryptophan hydroxylase-1 inhibitors” (Bioorg Med Chem Lett, 2017).

Series [1] in a line: Clearance in beagle dog at 1 mg/kg, iv. In kind it is ADME, organism-based, Canis lupus familiaris. The conditions noted are these: in vivo.
For series [2], the system named is Rattus norvegicus. Put plainly: Clearance in rat at 1 mg/kg, iv relative to hepatic blood flow. It counts as ADME, organism-based. Particulars: in vivo.
Series [3] has as its system Canis familiaris. Description: Clearance in beagle dog at 1 mg/kg, iv relative to hepatic blood flow. In kind it is ADME, organism-based, Canis lupus familiaris. The conditions noted are these: in vivo.
The nature of series [4]: (§1) Volume of distribution at steady state in beagle dog at 1 mg/kg, iv. It counts as ADME, organism-based, Canis lupus familiaris. Particulars: beagle, in vivo, read-out: Vdss.
Series [5] has as its system Rattus norvegicus. Put plainly: (§2) Half life in rat at 1 mg/kg, iv. The conditions noted are these: in vivo. In kind it is ADME, organism-based.
For series [6], the system named is Rattus norvegicus. Description: (§3) Volume of distribution at steady state in rat at 1 mg/kg, iv. In kind it is ADME, organism-based. The conditions noted are these: in vivo.
Series [7] addresses T1, Tryptophan 5-hydroxylase 2 (Homo sapiens, UniProt Q8IWU9).
T1 sequence (Q8IWU9 whole entry): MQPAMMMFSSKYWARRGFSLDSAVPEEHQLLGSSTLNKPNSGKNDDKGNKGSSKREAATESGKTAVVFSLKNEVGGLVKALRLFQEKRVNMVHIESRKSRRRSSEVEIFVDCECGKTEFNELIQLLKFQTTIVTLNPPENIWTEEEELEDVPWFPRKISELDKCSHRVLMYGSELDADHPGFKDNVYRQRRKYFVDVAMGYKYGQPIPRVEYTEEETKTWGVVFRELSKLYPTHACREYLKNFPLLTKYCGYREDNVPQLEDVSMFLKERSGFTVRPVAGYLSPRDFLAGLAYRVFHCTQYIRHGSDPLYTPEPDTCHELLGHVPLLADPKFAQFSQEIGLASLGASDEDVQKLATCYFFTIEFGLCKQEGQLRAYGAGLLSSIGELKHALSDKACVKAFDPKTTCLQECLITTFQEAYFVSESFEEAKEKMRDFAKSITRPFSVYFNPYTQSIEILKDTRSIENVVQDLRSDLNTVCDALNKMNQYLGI
Description: Inhibition of TPH2 (unknown origin).

Series [8] is described as follows: (§4) Half life in beagle dog at 1 mg/kg, iv. It counts as ADME, organism-based, Canis lupus familiaris. Particulars: beagle, in vivo.
Series [9] deals with T2, Tryptophan 5-hydroxylase 1 (Homo sapiens, UniProt P17752).
T2 sequence (P17752 whole entry): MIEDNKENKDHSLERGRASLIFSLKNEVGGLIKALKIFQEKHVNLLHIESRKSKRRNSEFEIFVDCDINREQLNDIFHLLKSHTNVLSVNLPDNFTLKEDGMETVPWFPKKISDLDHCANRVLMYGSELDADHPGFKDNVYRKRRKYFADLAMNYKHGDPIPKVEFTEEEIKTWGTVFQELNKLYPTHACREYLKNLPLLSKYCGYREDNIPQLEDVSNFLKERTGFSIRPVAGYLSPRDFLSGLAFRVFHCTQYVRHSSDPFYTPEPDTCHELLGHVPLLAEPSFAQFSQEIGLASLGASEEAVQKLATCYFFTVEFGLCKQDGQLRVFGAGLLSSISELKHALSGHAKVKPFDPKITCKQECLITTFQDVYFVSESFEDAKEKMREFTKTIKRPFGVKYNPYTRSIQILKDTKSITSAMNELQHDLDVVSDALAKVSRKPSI
Description: Inhibition of TPH1 (unknown origin)

For series [10], the system named is Mus musculus. Put plainly: Drug level in mouse treated with (S)-ethyl 8-(2-amino-6-((R)-1-(5-chlorobiphenyl-2-yl)-2,2,2-trifluoroethoxy)pyrimidin-4-yl)-2,8-diazaspiro[4.5]decane-3-carboxylate at 10 to 50 mg/kg, po administered as single dose. In kind it is ADME, organism-based. Particulars: in vivo.
Series [11] is described as follows: Drug metabolism in rat hepatocytes assessed as 8-(2-amino-6-((R)-1-(2-(3-carboxy-1H-pyrazol-1-yl)-4-chlorophenyl)-2,2,2-trifluoroethoxy)pyrimidin-4-yl)-2,8-diazaspiro[4.5]decane-3-carboxylic acid formation by LC/UV/MS method. It counts as ADME, cell-based, Hepatocyte.
Series [12] is described as follows: Drug metabolism in rat hepatocytes assessed as 8-(2-amino-6-((R)-1-(4-chloro-2-(3-(sulfooxymethyl)-1H-pyrazol-1-yl)phenyl)-2,2,2-trifluoroethoxy)pyrimidin-4-yl)-2,8-diazaspiro[4.5]decane-3-carboxylic acid formation by LC/UV/MS method. It counts as ADME, cell-based, Hepatocyte.
The nature of series [13]: Drug metabolism in rat hepatocytes assessed as hydroxylation by measuring 8-(2-amino-6-((R)-1-(4-chloro-2-(3-(hydroxymethyl)-1H-pyrazol-1-yl)phenyl)-2,2,2-trifluoroethoxy)pyrimidin-4-yl)-2,8-diazaspiro[4.5]decane-3-carboxylic acid level by LC/UV/MS method. It counts as ADME, cell-based, Hepatocyte.
Series [14] in a line: Prodrug activation in rat hepatocytes assessed as ester hydrolysis by measuring 8-(2-amino-6-((R)-1-(4-chloro-2-(3-methyl-1H-pyrazol-1-yl)phenyl)-2,2,2-trifluoroethoxy)pyrimidin-4-yl)-2,8-diazaspiro[4.5]decane-3-carboxylic acid level by LC/UV/MS method. It counts as cell-based, Hepatocyte.
For series [15], the system named is Rattus norvegicus. Description: AUC (0 to last) in rat assessed as (S)-8-(2-amino-6-((R)-1-(5-chlorobiphenyl-2-yl)-2,2,2-trifluoroethoxy)pyrimidin-4-yl)-2,8-diazaspiro[4.5]decane-3-carboxylic acid level at 25 mg/kg, po. It counts as ADME, organism-based. More on the design: dose 25 mg/kg, route oral, time 0 - last. Particulars: in vivo.
For series [16], the system named is Canis familiaris. Put plainly: Cmax in beagle dog assessed as (S)-8-(2-amino-6-((R)-1-(5-chlorobiphenyl-2-yl)-2,2,2-trifluoroethoxy)pyrimidin-4-yl)-2,8-diazaspiro[4.5]decane-3-carboxylic acid level at 25 mg/kg, po. In kind it is ADME, organism-based, Canis lupus familiaris. More on the design: dose 25 mg/kg, route oral. The conditions noted are these: in vivo.

In series [17] the test system is Mus musculus. Put plainly: In vivo inhibition of TPH1 in mouse assessed as reduction in 5-HT level in intestinal mucosa at 50 mg/kg, po administered daily as single dose relative to control. In kind it is functional.
Series [18] can be described thus: Clearance in rat at 1 mg/kg, iv. In kind it is ADME, organism-based. Particulars: in vivo.
Series [19] concerns Canis familiaris. Put plainly: AUC (0 to last) in beagle dog assessed as (S)-8-(2-amino-6-((R)-1-(5-chlorobiphenyl-2-yl)-2,2,2-trifluoroethoxy)pyrimidin-4-yl)-2,8-diazaspiro[4.5]decane-3-carboxylic acid level at 25 mg/kg, po. Details: dose 25 mg/kg, time 0 - last, route oral. It counts as ADME, organism-based, Canis lupus familiaris. The conditions noted are these: in vivo.

In series [20] the test system is Mus musculus. Description: Prodrug activation in mouse assessed as (S)-8-(2-amino-6-((R)-1-(5-chlorobiphenyl-2-yl)-2,2,2-trifluoroethoxy)pyrimidin-4-yl)-2,8-diazaspiro[4.5]decane-3-carboxylic acid formation at 10 to 50 mg/kg, po administered as single dose. In kind it is organism-based. Particulars: in vivo.
The test system of series [21] is Canis familiaris. Described as §1. In kind it is ADME, organism-based, Canis lupus familiaris. Particulars: in vivo.
Series [22] can be described thus: as §2. In kind it is ADME, organism-based. Particulars: in vivo.
Series [23] in a line: as §3. It counts as ADME, organism-based. Particulars: in vivo, read-out: Vdss.
In series [24] the test system is Canis familiaris. The series is described as §4. In kind it is ADME, organism-based, Canis lupus familiaris. The conditions noted are these: in vivo.
The test system of series [25] is Canis familiaris. Description: Half life in beagle dog assessed as (S)-8-(2-amino-6-((R)-1-(5-chlorobiphenyl-2-yl)-2,2,2-trifluoroethoxy)pyrimidin-4-yl)-2,8-diazaspiro[4.5]decane-3-carboxylic acid level at 1 mg/kg, iv. In kind it is ADME, organism-based, Canis lupus familiaris. Particulars: in vivo.
Series [26] deals with Mus musculus. Description: In vivo inhibition of TPH1 in mouse assessed as reduction in 5-HT level in intestinal mucosa at 10 mg/kg, po administered daily as single dose relative to control. In kind it is functional.
In series [27] the test system is Rattus norvegicus. Description: Cmax in rat assessed as (S)-8-(2-amino-6-((R)-1-(5-chlorobiphenyl-2-yl)-2,2,2-trifluoroethoxy)pyrimidin-4-yl)-2,8-diazaspiro[4.5]decane-3-carboxylic acid level at 25 mg/kg, po. It counts as ADME, organism-based. Details: dose 25 mg/kg, route oral. Particulars: in vivo.
The test system of series [28] is Rattus norvegicus. Description: AUC (0 to last) in rat assessed as (S)-8-(2-amino-6-((R)-1-(3',4'-dimethyl-3-(3-methyl-1H-pyrazol-1-yl)biphenyl-4-yl)-2,2,2-trifluoroethoxy)pyrimidin-4-yl)-2,8-diazaspiro[4.5]decane-3-carboxylic acid level at 25 mg/kg, po. It counts as ADME, organism-based. More on the design: dose 25 mg/kg, time 0 - last, route oral. Particulars: in vivo.

In series [29] the test system is Rattus norvegicus. Description: Cmax in rat assessed as (S)-8-(2-amino-6-((R)-1-(3',4'-dimethyl-3-(3-methyl-1H-pyrazol-1-yl)biphenyl-4-yl)-2,2,2-trifluoroethoxy)pyrimidin-4-yl)-2,8-diazaspiro[4.5]decane-3-carboxylic acid level at 25 mg/kg, po. In kind it is ADME, organism-based. Details: dose 25 mg/kg, route oral. Particulars: in vivo.
Series [30] concerns Rattus norvegicus. Put plainly: Half life in rat assessed as (S)-8-(2-amino-6-((R)-1-(3',4'-dimethyl-3-(3-methyl-1H-pyrazol-1-yl)biphenyl-4-yl)-2,2,2-trifluoroethoxy)pyrimidin-4-yl)-2,8-diazaspiro[4.5]decane-3-carboxylic acid level at 1 mg/kg, iv. It counts as ADME, organism-based. Particulars: in vivo.

In general, clearance refers to the rate of elimination divided by the concentration. Low readings indicate inefficient removal, high ones efficient removal. In general, Vdss refers to a proportionality between amount in the body and measured concentration, not a real space. High values mean wide distribution into tissue, low ones little distribution into tissue. Usually IC50 stands for the concentration that gives 50% inhibition. Lower therefore signals higher potency. The term half-life denotes the time needed for the level to fall by half in the phase considered. A low value points to rapid decline. In series [1], `Nc1nc(O[C@H](c2ccc(Cl)cc2-c2ccccc2)C(F)(F)F)cc(N2CCC3(CC2)CN[C@H](C(=O)O)C3)n1` [RODATRISTAT] registered a clearance of 1.2 mL/min/kg. Besides, the CL came to 1.2% with Rattus norvegicus [2] and 4% in the series on Canis familiaris [3]. Also, in series [4], the Vd was 0.24 L/kg. This compound returned a t1/2 in the series on Rattus norvegicus [5] of 12.1 h. This compound displayed a Vdss with Rattus norvegicus [6] of 7.8 L/kg. For the same compound, the IC50 in series [7] is 7 nM; in series [9] it was 33 nM. In addition, in series [8], the half-life is 288 min. Also, in the series with Mus musculus [10], the Drug metabolism entry is “Metabolite_Detected”.
As for `CCOC(=O)C1CC2(CCN(c3cc(O[C@H](c4ccc(Cl)cc4-n4ccc(C)n4)C(F)(F)F)nc(N)n3)CC2)CN1` (stereo partly drawn), the Drug metabolism result in series [11], in series [12], in [13] and in series [14] was “Metabolite_Detected” throughout.
As a reminder, the Cmax is the peak of the concentration-time curve. The term inhibition in vivo denotes the relative decrease from the control value, in per cent. For `CCOC(=O)[C@@H]1CC2(CCN(c3cc(O[C@H](c4ccc(Cl)cc4-c4ccccc4)C(F)(F)F)nc(N)n3)CC2)CN1` [RODATRISTAT ETHYL], the AUClast came to 5374 ng·h/mL in the series on Rattus norvegicus [15] and 32398 ng·h/mL in the series on Canis familiaris [19]. In addition, the Cmax was determined as 2797 ng/mL in the series on Canis familiaris [16] and 722 ng/mL in the series with Rattus norvegicus [27]. Moreover, in the series with Mus musculus [17], the inhibition in vivo at 50 mg/kg is 71%. The compound further yielded a clearance in [18] of 106 mL/min/kg. Further, the CL in the series on Rattus norvegicus [2] is > 100%; in the series with Canis familiaris [3] it was 46%. Also, in the series with Mus musculus [20], the Drug metabolism result was “Metabolite_Detected”. The Vdss in the series with Canis familiaris [21] stood at 2.34 L/kg. Besides, in series [22], the half-life was 191 min. The Vd in series [23] was determined as 12.7 L/kg. For the same compound, the t1/2 in the series on Canis familiaris [24] is 5.05 h; in the series with Canis familiaris [25] it was 7.59 h. Moreover, the inhibition in vivo at 10 mg/kg in the series on Mus musculus [26] amounted to 55%.
For the compound `CCOC(=O)[C@@H]1CC2(CCN(c3cc(O[C@H](c4ccc(-c5ccc(C)c(C)c5)cc4-n4ccc(C)n4)C(F)(F)F)nc(N)n3)CC2)CN1`, the inhibition in vivo at 50 mg/kg in the series with Mus musculus [17] came out at 70%. Besides, the AUClast in the series with Rattus norvegicus [28] was determined as 1634 ng·h/mL. The Cmax with Rattus norvegicus [29] is 240 ng/mL. In the series with Rattus norvegicus [30], the t1/2 turned out to be 3.6 h.
